{"source": "BindingDB's records for doi:10.1016/j.chembiol.2014.09.011", "about": "(Astrazeneca R&D, 2014)", "assay_in_all_cases": "AMPD Enzymatic Activity Assay", "settings_in_all_cases": "pH 7.4", "key": {"AMP deaminase 1 [1]": {"molecular_target": "T1, AMP deaminase 1 (Homo sapiens, UniProt P23109)", "T1 sequence (P23109 whole entry)": "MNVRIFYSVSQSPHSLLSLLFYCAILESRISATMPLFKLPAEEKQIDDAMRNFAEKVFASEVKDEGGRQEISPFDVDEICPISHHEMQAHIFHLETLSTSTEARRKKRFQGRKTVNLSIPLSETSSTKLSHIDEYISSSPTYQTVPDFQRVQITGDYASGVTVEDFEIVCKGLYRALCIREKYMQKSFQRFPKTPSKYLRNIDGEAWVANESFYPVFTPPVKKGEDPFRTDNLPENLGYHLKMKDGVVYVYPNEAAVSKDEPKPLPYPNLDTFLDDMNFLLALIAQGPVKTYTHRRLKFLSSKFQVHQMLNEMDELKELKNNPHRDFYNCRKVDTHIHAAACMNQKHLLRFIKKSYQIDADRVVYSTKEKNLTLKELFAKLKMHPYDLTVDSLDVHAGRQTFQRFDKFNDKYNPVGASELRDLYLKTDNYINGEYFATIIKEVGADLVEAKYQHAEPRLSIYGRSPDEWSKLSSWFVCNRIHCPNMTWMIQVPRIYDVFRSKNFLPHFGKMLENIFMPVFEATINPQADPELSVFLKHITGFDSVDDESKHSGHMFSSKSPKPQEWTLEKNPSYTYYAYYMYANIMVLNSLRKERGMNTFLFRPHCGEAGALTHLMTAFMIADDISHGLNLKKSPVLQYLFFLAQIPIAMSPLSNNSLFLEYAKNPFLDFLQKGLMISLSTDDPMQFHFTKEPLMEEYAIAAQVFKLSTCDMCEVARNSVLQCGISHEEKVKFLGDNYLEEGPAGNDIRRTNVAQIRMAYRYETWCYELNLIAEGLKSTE", "protocol": "(§1) AMPD1 was added to buffer A (50 mM HEPES, 150 mM KCl, 5 mM MgCl2, and 0.5 mMglutathione [pH 7.4]) to a concentration of 10 nM. A substrate mix consistingof 2mMNADPH, 6mMa-ketoglutarate, 8mMAMP, and 15 U GDH was prepared in buffer A. Substrate mix ([…]) was added to the plate, followed by centrifugation and incubation for 1 hr. Detection was by absorbance at 340 nm following the conversion of NADPH to NADP+. Recombinant AMPD enzyme activity assays were performed in a 384-well format using the same conditions as described above, except the assay volume was […] and the AMP concentration for the AMPD2 assay was 8 mM. Different AMPD enzyme concentrations were used to have linear reactions: hAMPD1 (4 nM), hAMPD2 (38 nM), hAMPD3 (1 nM), rAMPD1 (116 nM), rAMPD2 (53 nM), rAMPD3 (31 nM), and mAMPD1 (816 nM)."}, "AMP deaminase 1 [2]": {"molecular_target": "T2, AMP deaminase 1 (Mus musculus, UniProt Q3V1D3)", "T2 sequence (Q3V1D3 whole entry)": "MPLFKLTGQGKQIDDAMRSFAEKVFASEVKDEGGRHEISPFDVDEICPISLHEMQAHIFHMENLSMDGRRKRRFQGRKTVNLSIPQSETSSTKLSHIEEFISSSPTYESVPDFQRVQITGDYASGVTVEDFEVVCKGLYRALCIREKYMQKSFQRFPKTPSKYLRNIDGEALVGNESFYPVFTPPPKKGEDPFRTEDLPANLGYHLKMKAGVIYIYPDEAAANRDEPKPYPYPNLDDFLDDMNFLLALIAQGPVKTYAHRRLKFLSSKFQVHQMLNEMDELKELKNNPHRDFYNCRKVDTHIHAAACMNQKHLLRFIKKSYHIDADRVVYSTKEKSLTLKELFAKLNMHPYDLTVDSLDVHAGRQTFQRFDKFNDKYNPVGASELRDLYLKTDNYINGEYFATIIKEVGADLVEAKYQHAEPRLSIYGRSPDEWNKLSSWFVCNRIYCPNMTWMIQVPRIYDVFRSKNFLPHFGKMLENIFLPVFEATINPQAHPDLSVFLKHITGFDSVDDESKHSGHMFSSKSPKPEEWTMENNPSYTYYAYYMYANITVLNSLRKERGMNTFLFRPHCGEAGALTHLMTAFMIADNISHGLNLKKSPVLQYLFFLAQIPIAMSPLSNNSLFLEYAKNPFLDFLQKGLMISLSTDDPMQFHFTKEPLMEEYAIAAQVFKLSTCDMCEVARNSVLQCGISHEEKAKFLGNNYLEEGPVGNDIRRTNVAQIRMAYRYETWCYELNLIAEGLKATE", "protocol": "as §1"}, "AMP deaminase 1 [3]": {"molecular_target": "T3, AMP deaminase 1 (Rattus norvegicus, UniProt P10759)", "T3 sequence (P10759 whole entry)": "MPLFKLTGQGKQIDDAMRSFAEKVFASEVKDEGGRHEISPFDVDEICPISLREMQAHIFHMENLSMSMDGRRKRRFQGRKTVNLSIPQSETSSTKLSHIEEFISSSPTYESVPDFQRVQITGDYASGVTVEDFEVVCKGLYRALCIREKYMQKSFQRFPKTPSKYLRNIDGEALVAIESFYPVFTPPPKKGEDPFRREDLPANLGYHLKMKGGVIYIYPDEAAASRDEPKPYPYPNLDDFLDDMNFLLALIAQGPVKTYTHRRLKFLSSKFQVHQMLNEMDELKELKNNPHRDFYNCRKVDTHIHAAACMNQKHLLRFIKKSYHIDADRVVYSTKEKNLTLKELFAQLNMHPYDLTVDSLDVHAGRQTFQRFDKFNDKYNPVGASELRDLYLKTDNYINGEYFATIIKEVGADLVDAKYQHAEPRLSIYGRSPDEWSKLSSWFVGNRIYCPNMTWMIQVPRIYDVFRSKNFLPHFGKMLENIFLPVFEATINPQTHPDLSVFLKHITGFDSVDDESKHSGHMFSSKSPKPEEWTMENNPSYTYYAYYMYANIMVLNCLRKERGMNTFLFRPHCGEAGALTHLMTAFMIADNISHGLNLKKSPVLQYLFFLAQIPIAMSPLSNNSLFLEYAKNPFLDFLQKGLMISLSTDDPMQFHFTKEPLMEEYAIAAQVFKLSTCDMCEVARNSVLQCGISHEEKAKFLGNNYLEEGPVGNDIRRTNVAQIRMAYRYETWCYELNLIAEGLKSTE", "protocol": "as §1"}, "AMP deaminase 2": {"molecular_target": "T4, AMP deaminase 2 (Rattus norvegicus, UniProt Q02356)", "T4 sequence (Q02356 whole entry)": "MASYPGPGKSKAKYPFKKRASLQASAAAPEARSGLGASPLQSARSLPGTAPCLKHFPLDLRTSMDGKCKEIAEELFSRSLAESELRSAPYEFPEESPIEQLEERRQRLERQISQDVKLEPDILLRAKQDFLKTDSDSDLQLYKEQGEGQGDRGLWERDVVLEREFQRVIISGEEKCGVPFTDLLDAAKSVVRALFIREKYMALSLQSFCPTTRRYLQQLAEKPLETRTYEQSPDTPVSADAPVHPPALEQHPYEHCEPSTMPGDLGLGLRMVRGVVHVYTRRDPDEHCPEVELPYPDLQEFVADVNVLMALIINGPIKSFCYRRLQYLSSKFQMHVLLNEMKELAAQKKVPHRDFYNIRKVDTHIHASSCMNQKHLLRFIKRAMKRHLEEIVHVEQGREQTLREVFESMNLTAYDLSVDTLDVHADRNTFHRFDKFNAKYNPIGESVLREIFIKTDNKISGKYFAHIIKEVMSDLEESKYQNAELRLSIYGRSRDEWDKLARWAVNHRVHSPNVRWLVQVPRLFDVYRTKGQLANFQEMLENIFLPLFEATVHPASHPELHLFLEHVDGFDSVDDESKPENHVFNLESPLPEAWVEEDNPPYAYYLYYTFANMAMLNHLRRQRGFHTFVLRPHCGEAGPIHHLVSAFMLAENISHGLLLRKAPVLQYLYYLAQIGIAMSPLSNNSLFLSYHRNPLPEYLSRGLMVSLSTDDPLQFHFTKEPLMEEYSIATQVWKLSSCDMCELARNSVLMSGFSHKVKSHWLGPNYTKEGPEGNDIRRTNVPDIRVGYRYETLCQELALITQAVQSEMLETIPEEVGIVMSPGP", "protocol": "as §1"}}}
{"smiles": "COc1cc(-c2ccc(CN[C@H](C)c3cccc4ccncc34)cc2)ccc1C(=O)O", "note": "[4-[4-({[(1R)-1-(isoquinolin-8-yl)ethyl]amino}methyl)phenyl]-2-methoxybenzoic acid (Compound 4)]", "values": [{"measurement": "IC50", "setting": "AMP deaminase 1 [1]", "result": 24, "unit": "nM"}, {"measurement": "IC50", "setting": "AMP deaminase 1 [2]", "result": 20, "unit": "nM"}, {"measurement": "IC50", "setting": "AMP deaminase 1 [3]", "result": 20, "unit": "nM"}, {"measurement": "IC50", "setting": "AMP deaminase 2", "result": 300, "unit": "nM"}]}
{"smiles": "C[C@@H](NCc1ccc(-c2ccc(C(=O)O)cn2)cc1)c1cccc2ccccc12", "note": "[6-[4-({[(1R)-1-(naphthalen-1-yl)ethyl]amino}methyl)phenyl]pyridine-3-carboxylic acid (Compound 1)]", "values": [{"measurement": "IC50", "setting": "AMP deaminase 1 [1]", "result": 620, "unit": "nM"}]}
